# Test results taken from patent US20230131535A1, “ARYLMETHYLENE AROMATIC COMPOUNDS AS Kv1.3 POTASSIUM SHAKER CHANNEL BLOCKERS” (D. E. Shaw Research, LLC, priority 2019, published 2023).
# Target: T1, Kv1.3 potassium channel (Homo sapiens, UniProt P22001)
# T1 construct: expressed in transfected cells
# Test: Kv1.3 potassium channel blocker activity, automated whole-cell patch clamp (Patchliner)
# Type: cell-based
# Conditions: Table 6; CHO-K1 cells stably expressing Kv1.3; whole cell current, pulses -90 mV to +40 mV; read-out: Kv1.3_IC50
# Description: Example 67. Evaluation of Kv1.3 Potassium Channel Blocker Activities
# The assay described below is used to evaluate the disclosed compound's activities as Kv1.3 potassium channel blockers.
# CHO-K1 cells stably expressing Kv1.3 were grown in DMEM containing 10% heat-inactivated FBS, 1 mM Sodium Pyruvate, 2 mM L-Glutamine and G418 (500 μg/ml). Cells were grown in culture flasks at 37° C. in a 5% CO2-humidified incubator.
# The cells were bathed in an extracellular solution containing 140 mM NaCl, 4 mM KCl, 2 mM CaCl2), 1 mM MgCl2, 5 mM Glucose, 10 mM HEPES; pH adjusted to 7.4 with NaOH; 295-305 mOsm. The internal solution contained 50 mM KCl, 10 mM NaCl, 60 mM KF, 20 mM EGTA, 10 mM HEPES; pH adjusted to 7.2 with KOH; 285 mOsm. All compounds were dissolved in DMSO at 30 mM. Compound stock solutions were freshly diluted with external solution to concentrations of 30 nM, 100 nM, 300 nM, 1 μM, 3 μM, 10 μM, 30 μM and 100 μM. The highest content of DMSO (0.3%) was present in 100 μM.
# The currents were evoked by applying 100 ms depolarizing pulses from −90 mV (holding potential) to +40 mV were applied with 0.1 Hz frequency. Control (compound-free) and compound pulse trains for each compound concentration applied contained 20 pulses. 10 second breaks were used between pulse trains (see Table 4 below).
# Whole cell current recordings and compound application were enabled by means of an automated patch clamp platform Patchliner (Nanion Technologies GmbH). EPC 10 patch clamp amplifier (HIEKA Elektronik Dr. Schulze GmbH) along with Patchmaster software (HIEKA Elektronik Dr. Schulze GmbH) was used for data acquisition. Data were sampled at 10 kHz without filtering. Passive leak currents were subtracted online using a P/4 procedure (HEKA Elektronik Dr. Schulze GmbH). Increasing compound concentrations were applied consecutively to the same cell without washouts in between. Total compound incubation time before the next pulse train was not longer than 10 seconds. Peak current inhibition was observed during compound equilibration.
# AUC and peak values were obtained with Patchmaster (HEKA Elektronik Dr. Schulze GmbH). To determine IC50, the last single pulse in the pulse train corresponding to a given compound concentration was used. Obtained AUC and peak values in the presence of compound were normalized to control values in the absence of compound. Using Origin (OridinLab), IC50 was derived from data fit to Hill equation: Icompound/Icontrol=(100−A)/(1+([compound]/IC50)nH)+A, where IC50 value is the concentration at which current inhibition is half-maximal, [compound] is the applied compound concentration, A is the fraction of current that is not blocked and nH is the Hill coefficient.
# T1 sequence (P22001 whole entry): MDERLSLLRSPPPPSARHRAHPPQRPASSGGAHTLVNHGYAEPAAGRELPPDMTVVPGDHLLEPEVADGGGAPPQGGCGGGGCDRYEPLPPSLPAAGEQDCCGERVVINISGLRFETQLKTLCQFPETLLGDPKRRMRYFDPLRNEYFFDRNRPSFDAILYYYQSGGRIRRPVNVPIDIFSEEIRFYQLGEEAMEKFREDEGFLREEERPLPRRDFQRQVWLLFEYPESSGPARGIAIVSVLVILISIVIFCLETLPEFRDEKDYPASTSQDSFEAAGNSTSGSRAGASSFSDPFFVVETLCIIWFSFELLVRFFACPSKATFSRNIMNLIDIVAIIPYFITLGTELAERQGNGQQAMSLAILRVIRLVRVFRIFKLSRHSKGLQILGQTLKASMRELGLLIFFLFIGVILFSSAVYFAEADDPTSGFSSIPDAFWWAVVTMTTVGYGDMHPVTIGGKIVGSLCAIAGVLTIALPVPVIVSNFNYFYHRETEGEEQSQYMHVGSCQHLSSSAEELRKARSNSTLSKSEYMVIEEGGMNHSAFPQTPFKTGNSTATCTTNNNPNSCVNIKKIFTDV
row,SMILES,IC50
1,"Cc1cnccc1C(O)c1c(O)ccc(Cl)c1Cl (single isomer, unassigned) [Compound 43, 3,4-dichloro-2-[hydroxy(3-methylpyridin-4-yl)methyl]phenol]",< 30 µM
2,"Nc1cc(C(O)c2c(O)ccc(Cl)c2Cl)ccn1 (single isomer, unassigned) [Compound 44, 2-[(2-aminopyridin-4-yl)(hydroxy)methyl]-3,4-dichlorophenol]",< 30 µM
3,"NCc1cc(C(O)c2c(O)ccc(Cl)c2Cl)ccn1 (single isomer, unassigned) [Compound 47, 2-((2-(aminomethyl)pyridin-4-yl)(hydroxy)methyl)-3,4-dichlorophenol]",< 30 µM
4,"O=C(N[C@@H](c1ccncc1)c1c(O)ccc(Cl)c1Cl)[C@@H]1CCCN1 (single isomer, unassigned) [Compound 65]",< 30 µM
5,"O=C(N[C@H](c1ccncc1)c1c(O)ccc(Cl)c1Cl)[C@H]1CCCN1 (single isomer, unassigned) [Compound 66]",< 30 µM
6,"NC(c1ccccc1)c1c(O)ccc(Cl)c1Cl (centres unmarked) [Compound 3, 2-[amino(phenyl)methyl]-3,4-dichlorophenol]",< 30 µM
7,"NC(c1ccccc1)c1cc(Cl)c(Cl)cc1O (centres unmarked) [Compound 5, 2-[amino(phenyl)methyl]-4,5-dichlorophenol]",< 30 µM
8,"NC(c1cn[nH]c1)c1c(O)ccc(Cl)c1Cl (centres unmarked) [Compound 7, 2-[amino(1H-pyrazol-4-yl)methyl]-3,4-dichlorophenol]",< 30 µM
9,"N#Cc1cc(C(O)c2c(O)ccc(Cl)c2Cl)ccn1 (centres unmarked) [Compound 30, 4-[(2,3-dichloro-6-hydroxyphenyl)(hydroxy)methyl]pyridine-2-carbonitrile]",< 10 µM
10,"Oc1ccc2ccccc2c1C(O)c1ccncc1 (centres unmarked) [Compound 32, 1-[hydroxyl(pyridin-4-yl)methyl]naphthalen-2-ol]",< 10 µM
11,"CC(=O)NCc1cc(C(O)c2c(O)ccc(Cl)c2Cl)ccn1 (centres unmarked) [Compound 33, N-([4-[(2,3-dichloro-6-hydroxyphenyl)(hydroxy)methyl]pyridin-2-yl]methyl)acetamide]",< 10 µM
12,"Cc1cc(C(O)c2c(O)ccc(Cl)c2Cl)ccn1 (centres unmarked) [Compound 35, 3,4-dichloro-2-[hydroxy(2-methylpyridin-4-yl)methyl]phenol]",< 10 µM
13,"Oc1ccc(Cl)c(Cl)c1C(O)c1ccc2cc[nH]c2c1 (centres unmarked) [Compound 48, 3,4-dichloro-2-[hydroxy(1H-indol-6-yl)methyl]phenol]",< 10 µM
14,"Oc1ccc(Cl)c(Cl)c1C(O)c1cccc2[nH]ccc12 (centres unmarked) [Compound 51, 3,4-dichloro-2-[hydroxy(1H-indol-4-yl)methyl]phenol]",< 10 µM
15,"Oc1ccc(Cl)c(Cl)c1C(O)c1ccc2[nH]ccc2c1 (centres unmarked) [Compound 52, 3,4-dichloro-2-[hydroxy(1H-indol-5-yl)methyl]phenol]",< 30 µM
16,"Oc1ccc(Cl)c(Cl)c1C(O)c1cnccn1 (centres unmarked) [Compound 54, 3,4-dichloro-2-[hydroxy(pyrazin-2-yl)methyl]phenol]",< 10 µM
17,"Oc1ccc(Cl)c(Cl)c1C(O)c1ccncn1 (centres unmarked) [Compound 55, 3,4-dichloro-2-[hydroxy(pyrimidin-4-yl)methyl]phenol]",< 10 µM
18,"Oc1ccc(Cl)c(Cl)c1C(O)c1cn[nH]c1 (centres unmarked) [Compound 56, 3,4-dichloro-2-[hydroxy(1H-pyrazol-4-yl)methyl]phenol]",< 10 µM
19,"O=C(NC(c1ccncc1)c1c(O)ccc(Cl)c1Cl)c1cn[nH]c1 (centres unmarked) [Compound 57, N-[(2,3-dichloro-6-hydroxyphenyl)(pyridin-4-yl)methyl]-1H-pyrazole-4-carboxamide]",< 30 µM
20,"Oc1ccc(Cl)c(Cl)c1C(O)c1ccnc(N2CCOCC2)c1 (centres unmarked) [Compound 58, 3,4-dichloro-2-[hydroxy[2-(morpholin-4-yl)pyridin-4-yl]methyl]phenol]",< 10 µM
21,"Oc1ccc(Cl)c(Cl)c1C(O)c1c[nH]c2ccccc12 (centres unmarked) [Compound 59, 3,4-dichloro-2-[hydroxy(1H-indol-3-yl)methyl]phenol]",< 30 µM

# Other lines, results leading:
row,IC50,SMILES
1,< 10 µM,"O=C(NC(c1ccncc1)c1c(O)ccc(Cl)c1Cl)C1CNC1 (single isomer, unassigned) [Compound 49, N-[(2,3-dichloro-6-hydroxyphenyl)(pyridin-4-yl)methyl]azetidine-3-carboxamide]"
2,< 10 µM,"O=C(N[C@@H](c1ccncc1)c1c(O)ccc(Cl)c1Cl)[C@H]1CCCN1 (single isomer, unassigned) [Compound 67]"
3,< 1 µM,"CN1CC(C(=O)NC(c2ccncc2)c2c(O)ccc(Cl)c2Cl)C1 (single isomer, unassigned) [Compound 72, N-[(2,3-dichloro-6-hydroxyphenyl)(pyridin-4-yl)methyl]-1-methylazetidine-3-carboxamide]"
4,< 10 µM,"CN1CC(C(=O)NC(c2ccncc2)c2c(O)ccc(Cl)c2Cl)C1 (single isomer, unassigned) [Compound 75, N-[(2,3-dichloro-6-hydroxyphenyl)(pyridin-4-yl)methyl]-1-methylazetidine-3-carboxamide]"
5,< 10 µM,"NC(=O)c1cnccc1Cc1cc(Cl)c(Cl)cc1O [Compound 4, 4-[(4,5-dichloro-2-hydroxyphenyl)methyl]pyridine-3-carboxamide]"
6,< 10 µM,"NC(c1cn[nH]c1)c1cc(Cl)c(Cl)cc1O (centres unmarked) [Compound 10, 2-[amino(1H-pyrazol-4-yl)methyl]-4,5-dichlorophenol]"
7,< 10 µM,"Nc1ccc(C(N)c2cc(Cl)c(Cl)cc2O)cn1 (centres unmarked) [Compound 12, 2-[amino(6-aminopyridin-3-yl)methyl]-4,5-dichlorophenol]"
8,< 10 µM,"NC(=O)c1ccc(C(N)c2cc(Cl)c(Cl)cc2O)cc1 (centres unmarked) [Compound 13, 4-[amino(4,5-dichloro-2-hydroxyphenyl)methyl]benzamide]"
9,< 10 µM,"Nc1ccc(C(N)c2c(O)ccc(Cl)c2Cl)cn1 (centres unmarked) [Compound 14, 2-[amino(6-aminopyridin-3-yl)methyl]-3,4-dichlorophenol]"
10,< 10 µM,"NC(c1ccc(=O)[nH]c1)c1cc(Cl)c(Cl)cc1O (centres unmarked) [Compound 15, 5-[amino(4,5-dichloro-2-hydroxyphenyl)methyl]-1,2-dihydropyridin-2-one]"
11,< 10 µM,"N#Cc1ccc(C(N)c2cc(Cl)c(Cl)cc2O)cc1 (centres unmarked) [Compound 16, 4-[amino(4,5-dichloro-2-hydroxyphenyl)methyl]benzonitrile]"
12,< 10 µM,"CC(=O)NC(c1ccncc1)c1cc(Cl)c(Cl)cc1O (centres unmarked) [Compound 19, N-[(4,5-dichloro-2-hydroxyphenyl)(pyridin-4-yl)methyl]acetamide]"
13,< 10 µM,"Oc1ccc(Cl)c(Cl)c1Cc1ccncc1 [Compound 22, 3,4-dichloro-2-[(pyridin-4-yl)methyl]phenol]"
14,< 10 µM,"NC(=O)c1cc(C(O)c2c(O)ccc(Cl)c2Cl)ccn1 (centres unmarked) [Compound 23, 4-[(2,3-dichloro-6-hydroxyphenyl)(hydroxy)methyl]pyridine-2-carboxamide]"
15,< 10 µM,"NC(=O)c1cc(Cc2c(O)ccc(Cl)c2Cl)ccn1 [Compound 24, 4-[(2,3-dichloro-6-hydroxyphenyl)methyl]pyridine-2-carboxamide]"
16,< 10 µM,"CC(c1ccncc1)c1c(O)ccc(Cl)c1Cl (centres unmarked) [Compound 25, 3,4-dichloro-2-[1-(pyridin-4-yl)ethyl]phenol]"
17,< 1 µM,"Cn1cc(C(O)c2c(O)ccc(Cl)c2Cl)ccc1=O (centres unmarked) [Compound 60, 5-[(2,3-dichloro-6-hydroxyphenyl)(hydroxy)methyl]-1-methyl-1,2-dihydropyridin-2-one]"
